Results as given in paper PMC12396409, “Screening and hit evaluation of a microbial metabolite library against the pathogenic Plasmodium falciparum and Toxoplasma gondii parasites” (International Journal for Parasitology: Drugs and Drug …, 2025).
Where a name gives a salt, the structure may show the parent alone. Read-outs that look alike come from different tables or passages of the source.

Legend:
[1] = tested on: P. falciparum 3D7 parasites; experiment: P. falciparum growth inhibition assay, 1-cycle (72 h treatment), SYBR DNA staining (library screen at 2 μg/mL and dose-response); format: cell-based, Plasmodium falciparum
[2] = tested on: P. falciparum 3D7 parasites; experiment: P. falciparum growth inhibition assay, 2-cycle (120 h treatment), delayed-death screen and dose-response; format: cell-based, Plasmodium falciparum; conditions: P. falciparum; for 2) Growth (%) at 120 h / 3) Fold change (72 h/120 h): 2 μg/mL; for 3) Fold change (72 h/120 h): growth at 72 h / growth at 120 h
[3] = tested on: T. gondii RH strain (RH-Tub-eYFP) tachyzoites; experiment: microbe, parasite or virus in culture; format: cell-based, Toxoplasma gondii; conditions: for percent parasite growth at 2 µg/mL: Toxoplasma gondii; for Mean / Replicate 1 / Replicate 2: 2 μg/mL; for Mean: mean of both replicates, growth (% of control); for Replicate 1 / Replicate 2: values are growth (% of control)
[4] = active against the parasite at 2 μg/mL, no anti-tumour (NS-1) or cytotoxic (fibroblast) activity at 5 μg/mL

Cc1cc(=O)c2c(o1)O[C@@]1(C)CC[C@@H]3[C@@]4(C)CC[C@H](O)C(C)(C)[C@@H]4CC[C@@]3(C)[C@@H]1C2 [Chevalone E]
Pf_72h_%Growth_Rep1 ([1]; P. falciparum, 72 h, screen at 2 μg/mL, replicate 1): 103.28%
Pf_72h_%Growth_Rep2 ([1]; P. falciparum, 72 h, screen at 2 μg/mL, replicate 2): 92.51%
Pf_120h_%Growth_Rep1 ([2]; 120 h, screen at 2 μg/mL, replicate 1): 162.52%
Pf_120h_%Growth_Rep2 ([2]; 120 h, screen at 2 μg/mL, replicate 2): 100.96%
Tg_72h_%Growth_Rep1 ([3]; T. gondii, 72 h, screen at 2 μg/mL, replicate 1): 83.71%
Tg_72h_%Growth_Rep2 ([3]; T. gondii, 72 h, screen at 2 μg/mL, replicate 2): 88.30%

C=C[C@]1(C)C[C@@H](O)[C@]2(C)[C@H](C)CC[C@]3(CCC(=O)[C@H]32)[C@@H](C)[C@@H]1O [Mutilin]
Screen (P. falciparum) ([1]; library screen at 2 μg/mL, 3D7, 72 h, DD from the 120 h timepoint): I, I
Screen (T. gondii) ([3]; library screen at 2 μg/mL, RH strain, 72 h): I, I

CCC[C@@H]1C[C@@H](C(=O)N[C@@H]([C@H]2O[C@H](SC)[C@H](O)[C@@H](O)[C@H]2O)[C@H](C)Cl)N(C)C1 [Clindamycin hydrochloride, reference compound]
percent parasite growth at 2 µg/mL ([3]; 72 h, read-out: Tg_72h_%Growth_Rep1): 21.7%
percent parasite growth at 2 µg/mL ([3]; 72 h, read-out: Tg_72h_%Growth_Rep2): 28.6%

CC(=O)O[C@@H]1[C@@H]2O[C@H]2[C@@](C)(O)C(=O)[C@@H](C)C/C=C/[C@H]2[C@H](O)C(C)=C(C)[C@H]3[C@H](Cc4ccccc4)NC(=O)[C@@]123 [19,20-epoxycytochalasin C]
selectivity for P. falciparum in the screens [1, 4]: active selectively against P. falciparum and T. gondii
selectivity for T. gondii in the screens [3, 4]: active selectively against P. falciparum and T. gondii

CN(C)c1ccc(O)c2c1C[C@H]1C[C@H]3[C@H](N(C)C)C(O)=C(C(N)=O)C(=O)[C@@]3(O)C(O)=C1C2=O [Minocycline HCl, reference compound]
Mean ([3]; T. gondii, 72 h): 21.66
Replicate 1 ([3]; T. gondii, 72 h): 5.81
Replicate 2 ([3]; T. gondii, 72 h): 37.51

O=C(O)c1cccc(C(=O)O)n1 [Dipicolinic acid]
percent parasite growth at 2 µg/mL ([3]; 72 h, library screen at 2 μg/mL, 72 h, % growth, replicate 1, read-out: Tg_72h_%Growth_Rep1): 112%
percent parasite growth at 2 µg/mL ([3]; 72 h, library screen at 2 μg/mL, 72 h, % growth, replicate 2, read-out: Tg_72h_%Growth_Rep2): 89.5%

CN[C@@H]1C[C@H]2O[C@@](C)([C@@H]1OC)n1c3ccccc3c3c4c(c5c6ccccc6n2c5c31)C(=O)NC4=O [Oxostaurosporine, 7-]
Mean ([3]; T. gondii, 72 h): 37.90
Replicate 1 ([3]; T. gondii, 72 h): 57.26
Replicate 2 ([3]; T. gondii, 72 h): 18.54

CC(C)=CCC[C@H](C)[C@H]1CC[C@]2(C)C[C@H]3[C@H](C(=O)C[C@@]3(C)O)/C(C=O)=C\C[C@@H]12 [Ophiobolin C]
Mean ([3]; T. gondii, 72 h): 48.72
Replicate 1 ([3]; T. gondii, 72 h): 7.63
Replicate 2 ([3]; T. gondii, 72 h): 89.80

COC(=O)c1ccc(CCCCCCCCCCc2ccc(C(=O)OC)nc2)cn1 [Penicolinate A]
Mean ([3]; T. gondii, 72 h): 44.53
Replicate 1 ([3]; T. gondii, 72 h): 16.04
Replicate 2 ([3]; T. gondii, 72 h): 73.01

CN1CC[C@]2(c3cccc4c3N[C@H]3N(C)CC[C@@]43[C@]34CCN(C)[C@H]3Nc3ccccc34)c3ccccc3N[C@H]12 [Hodgkinsine B]
Mean ([3]; T. gondii, 72 h): 34.28
Replicate 1 ([3]; T. gondii, 72 h): 8.86
Replicate 2 ([3]; T. gondii, 72 h): 59.70

CCCCCC(=O)O[C@H]1[C@H](C)O[C@@H](O[C@H]2[C@H](N(C)C)[C@@H](O)[C@H](O[C@H]3[C@@H](CC=O)C[C@@H](C)[C@@H](O)/C=C/C=C/C[C@@H](C)OC(=O)C[C@@H](O)[C@@H]3OC)O[C@@H]2C)C[C@@]1(C)O [Leucomycin A13]
1) Growth (%) at 72 h ([1]; P. falciparum, 2 μg/mL, 72 h): 33.20%
2) Growth (%) at 120 h ([2]; 120 h): 9.02%
3) Fold change (72 h/120 h) [2]: 3.7

CN=C1NC(=O)[C@H]([C@H](C)c2c[nH]c3ccccc23)O1 [Indolmycin]
1) Growth (%) at 72 h ([1]; P. falciparum, 2 μg/mL, 72 h): 44.88%
2) Growth (%) at 120 h ([2]; 120 h): 17.39%
3) Fold change (72 h/120 h) [2]: 2.6

Cc1cc(=O)n2c3c(c4c(cc13)c(CO)cc(=O)n4C)OC2 [Nybomycin]
1) Growth (%) at 72 h ([1]; P. falciparum, 2 μg/mL, 72 h): 31.94%
Mean ([1]; P. falciparum, 72 h, 2 μg/mL, mean of both replicates, growth (% of control)): 31.94
2) Growth (%) at 120 h ([2]; 120 h): 16.54%
3) Fold change (72 h/120 h) [2]: 1.9
